Assay results as given in US12479847B2 (DANA-FARBER CANCER INSTITUTE, INC., priority 2019, dated 2025).

Key:
Experiment in all cases: KINOMEscan (ScanMAX) kinase profiling
Type in all cases: binding
[1] = molecular target: T1, panel of 468 kinases (Homo sapiens, UniProt P04049); conditions: RAF1; 1 μM; read-out: % control
T1 construct: purchased KINOMEscan (ScanMAX) service

[2] = molecular target: T2, panel of 468 kinases (Homo sapiens, UniProt P10721, V559D); conditions: KIT(V559D); 1 μM; read-out: % control
T2 construct: purchased KINOMEscan (ScanMAX) service
T2 sequence (P10721 26-976 V559D): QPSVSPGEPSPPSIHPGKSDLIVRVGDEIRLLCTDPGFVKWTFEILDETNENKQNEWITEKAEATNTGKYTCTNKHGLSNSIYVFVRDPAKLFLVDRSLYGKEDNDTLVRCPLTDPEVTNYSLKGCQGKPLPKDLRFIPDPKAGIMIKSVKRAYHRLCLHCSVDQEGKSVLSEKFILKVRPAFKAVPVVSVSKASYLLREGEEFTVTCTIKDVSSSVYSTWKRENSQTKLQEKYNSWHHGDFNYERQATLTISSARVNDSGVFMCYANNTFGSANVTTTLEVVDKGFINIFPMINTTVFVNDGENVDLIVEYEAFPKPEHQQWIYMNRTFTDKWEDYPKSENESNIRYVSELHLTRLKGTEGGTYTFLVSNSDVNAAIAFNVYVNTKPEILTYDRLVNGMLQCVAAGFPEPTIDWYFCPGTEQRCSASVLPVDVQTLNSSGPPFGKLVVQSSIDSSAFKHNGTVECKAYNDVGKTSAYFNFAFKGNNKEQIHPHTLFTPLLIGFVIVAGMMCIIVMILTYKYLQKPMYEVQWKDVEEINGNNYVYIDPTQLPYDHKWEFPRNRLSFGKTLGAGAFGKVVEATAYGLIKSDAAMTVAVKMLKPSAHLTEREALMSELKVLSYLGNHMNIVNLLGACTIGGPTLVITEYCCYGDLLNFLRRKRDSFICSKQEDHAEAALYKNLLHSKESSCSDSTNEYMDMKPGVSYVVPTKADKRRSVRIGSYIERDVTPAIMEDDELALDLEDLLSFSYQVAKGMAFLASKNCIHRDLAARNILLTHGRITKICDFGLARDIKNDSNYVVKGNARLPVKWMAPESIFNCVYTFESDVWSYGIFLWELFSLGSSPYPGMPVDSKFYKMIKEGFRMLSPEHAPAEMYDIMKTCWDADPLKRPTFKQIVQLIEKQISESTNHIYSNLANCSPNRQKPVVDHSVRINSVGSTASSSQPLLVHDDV

[3] = molecular target: T3, panel of 468 kinases (Homo sapiens, UniProt Q07912); conditions: TNK2; 1 μM; read-out: % control
T3 construct: purchased KINOMEscan (ScanMAX) service
T3 sequence (Q07912 whole entry): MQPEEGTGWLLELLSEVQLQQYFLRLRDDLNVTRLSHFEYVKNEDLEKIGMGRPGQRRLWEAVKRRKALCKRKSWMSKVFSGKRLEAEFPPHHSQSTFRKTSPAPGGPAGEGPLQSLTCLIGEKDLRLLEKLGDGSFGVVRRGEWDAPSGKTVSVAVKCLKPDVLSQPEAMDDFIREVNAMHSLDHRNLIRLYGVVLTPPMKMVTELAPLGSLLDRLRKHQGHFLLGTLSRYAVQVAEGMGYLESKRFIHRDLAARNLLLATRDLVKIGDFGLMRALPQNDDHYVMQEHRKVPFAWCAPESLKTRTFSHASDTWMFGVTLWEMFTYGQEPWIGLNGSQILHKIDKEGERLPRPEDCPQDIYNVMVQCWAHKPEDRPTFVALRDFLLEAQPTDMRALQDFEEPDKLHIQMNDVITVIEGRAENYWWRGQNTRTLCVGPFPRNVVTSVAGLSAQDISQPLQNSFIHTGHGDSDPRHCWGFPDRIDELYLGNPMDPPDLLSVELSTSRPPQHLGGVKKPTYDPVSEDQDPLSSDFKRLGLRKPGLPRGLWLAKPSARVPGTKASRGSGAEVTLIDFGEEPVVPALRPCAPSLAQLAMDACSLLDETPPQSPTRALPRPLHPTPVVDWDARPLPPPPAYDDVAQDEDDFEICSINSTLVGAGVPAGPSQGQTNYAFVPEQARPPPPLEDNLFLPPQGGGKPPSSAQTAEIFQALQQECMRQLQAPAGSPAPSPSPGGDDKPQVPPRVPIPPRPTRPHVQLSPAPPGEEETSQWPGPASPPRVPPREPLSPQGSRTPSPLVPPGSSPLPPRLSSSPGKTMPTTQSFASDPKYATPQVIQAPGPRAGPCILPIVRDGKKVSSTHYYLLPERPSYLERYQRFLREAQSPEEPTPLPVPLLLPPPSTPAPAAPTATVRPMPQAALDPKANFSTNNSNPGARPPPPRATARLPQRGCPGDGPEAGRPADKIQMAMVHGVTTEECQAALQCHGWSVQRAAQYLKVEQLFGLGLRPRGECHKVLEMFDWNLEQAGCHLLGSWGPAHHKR

[4] = molecular target: T4, panel of 468 kinases (Homo sapiens, UniProt Q6XUX3); conditions: RIPK5; 1 μM; read-out: % control
T4 construct: purchased KINOMEscan (ScanMAX) service
T4 sequence (Q6XUX3 1-929): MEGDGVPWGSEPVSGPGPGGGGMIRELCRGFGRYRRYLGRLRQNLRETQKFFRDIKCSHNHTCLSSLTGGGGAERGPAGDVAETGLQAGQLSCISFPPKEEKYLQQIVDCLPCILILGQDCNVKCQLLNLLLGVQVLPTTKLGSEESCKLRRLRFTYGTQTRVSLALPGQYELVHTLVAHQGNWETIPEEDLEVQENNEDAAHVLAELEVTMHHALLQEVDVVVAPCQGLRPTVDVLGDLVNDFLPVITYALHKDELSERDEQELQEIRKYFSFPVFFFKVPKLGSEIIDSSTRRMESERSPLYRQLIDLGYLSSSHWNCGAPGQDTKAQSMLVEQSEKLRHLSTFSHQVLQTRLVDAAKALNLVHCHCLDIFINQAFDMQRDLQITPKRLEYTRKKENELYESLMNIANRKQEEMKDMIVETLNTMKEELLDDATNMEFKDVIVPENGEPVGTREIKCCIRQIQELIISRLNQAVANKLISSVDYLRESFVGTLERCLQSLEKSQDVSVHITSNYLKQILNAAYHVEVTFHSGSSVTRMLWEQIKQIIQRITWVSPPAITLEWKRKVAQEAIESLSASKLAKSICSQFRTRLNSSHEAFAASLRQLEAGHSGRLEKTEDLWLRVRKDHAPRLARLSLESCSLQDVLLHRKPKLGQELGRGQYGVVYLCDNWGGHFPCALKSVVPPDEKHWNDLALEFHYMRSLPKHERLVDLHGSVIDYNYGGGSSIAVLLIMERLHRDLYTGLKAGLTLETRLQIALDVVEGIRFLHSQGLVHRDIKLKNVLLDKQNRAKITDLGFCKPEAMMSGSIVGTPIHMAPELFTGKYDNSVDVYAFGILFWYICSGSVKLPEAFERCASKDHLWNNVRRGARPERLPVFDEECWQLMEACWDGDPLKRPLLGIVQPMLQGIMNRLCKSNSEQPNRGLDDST

[5] = molecular target: T5, panel of 468 kinases (Homo sapiens, UniProt Q9UHD2); conditions: TBK1; 1 μM; read-out: % control
T5 construct: purchased KINOMEscan (ScanMAX) service
T5 sequence (Q9UHD2 1-729): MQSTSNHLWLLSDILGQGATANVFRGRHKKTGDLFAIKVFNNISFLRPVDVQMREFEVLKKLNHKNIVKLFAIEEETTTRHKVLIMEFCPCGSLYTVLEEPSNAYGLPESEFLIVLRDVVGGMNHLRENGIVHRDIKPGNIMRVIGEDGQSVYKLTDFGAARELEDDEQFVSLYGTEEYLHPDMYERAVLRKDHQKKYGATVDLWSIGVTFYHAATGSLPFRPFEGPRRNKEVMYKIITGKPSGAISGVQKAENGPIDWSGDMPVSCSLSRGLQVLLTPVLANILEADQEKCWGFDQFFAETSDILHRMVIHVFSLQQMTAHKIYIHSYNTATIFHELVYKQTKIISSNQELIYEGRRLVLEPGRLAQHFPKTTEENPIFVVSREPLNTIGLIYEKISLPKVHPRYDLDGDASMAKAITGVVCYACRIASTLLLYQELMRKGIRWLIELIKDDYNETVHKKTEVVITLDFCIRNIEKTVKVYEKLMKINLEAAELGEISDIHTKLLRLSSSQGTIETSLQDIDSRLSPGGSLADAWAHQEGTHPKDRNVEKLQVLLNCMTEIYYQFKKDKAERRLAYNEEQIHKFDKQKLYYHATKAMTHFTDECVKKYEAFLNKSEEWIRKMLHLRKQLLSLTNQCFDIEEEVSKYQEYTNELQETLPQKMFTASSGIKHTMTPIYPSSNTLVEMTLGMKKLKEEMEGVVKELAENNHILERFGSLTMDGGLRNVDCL

T1 sequence (P04049 whole entry): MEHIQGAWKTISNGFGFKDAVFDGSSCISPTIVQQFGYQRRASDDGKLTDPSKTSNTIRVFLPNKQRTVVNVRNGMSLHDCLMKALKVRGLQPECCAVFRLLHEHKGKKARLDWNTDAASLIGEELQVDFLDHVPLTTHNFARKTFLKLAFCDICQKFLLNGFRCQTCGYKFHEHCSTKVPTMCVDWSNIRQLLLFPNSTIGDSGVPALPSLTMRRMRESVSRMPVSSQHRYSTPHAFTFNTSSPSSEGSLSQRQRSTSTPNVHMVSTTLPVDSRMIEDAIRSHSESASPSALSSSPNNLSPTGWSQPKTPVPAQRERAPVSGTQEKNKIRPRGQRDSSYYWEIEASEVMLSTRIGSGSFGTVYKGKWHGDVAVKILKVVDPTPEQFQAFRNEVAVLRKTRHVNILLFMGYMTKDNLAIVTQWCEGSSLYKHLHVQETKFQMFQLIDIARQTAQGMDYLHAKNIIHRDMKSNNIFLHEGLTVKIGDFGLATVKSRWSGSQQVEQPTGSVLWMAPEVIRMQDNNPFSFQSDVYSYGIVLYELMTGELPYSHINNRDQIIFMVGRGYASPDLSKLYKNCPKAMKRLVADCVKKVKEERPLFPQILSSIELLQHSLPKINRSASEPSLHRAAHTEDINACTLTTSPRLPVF

SMILES | remaining binding at 1 µM [1] | remaining binding at 1 µM [2] | remaining binding at 1 µM [3] | remaining binding at 1 µM [4] | remaining binding at 1 µM [5]
CNc1nc(Nc2ccc(S(=O)(=O)N3CCC(N4CCOCC4)CC3)cc2OC)nc2[nH]cc(Cl)c12 [Compound 12, 5-chloro-N2-(2-methoxy-4-((4-morpholinopiperidin-1-yl)sulfonyl)phenyl)-N4-methyl-7H-pyrrolo[2,3-d]pyrimidine-2,4-diamine] | 100% | 80% | 100% | 23% | 95%
CNc1nc(Nc2ccc(C(=O)N3CCC(N4CCOCC4)CC3)c3c2OCO3)nc2[nH]cc(Cl)c12 [Compound 75, (7-((5-chloro-4-(methylamino)-7H-pyrrolo[2,3-d]pyrimidin-2-yl)amino)benzo[d][1,3]dioxol-4-yl)(4-morpholinopiperidin-1-yl)methanone] | 100% | 39% | 100% | 9.9% | 34%
CNc1nc(Nc2ccc(P3(=O)CCN(C4CCOCC4)CC3)cc2OC)nc2[nH]cc(Cl)c12 [Compound 77, 4-(4-((5-chloro-4-(methylamino)-7H-pyrrolo[2,3-d]pyrimidin-2-yl)amino)-3-methoxyphenyl)-1-(tetrahydro-2H-pyran-4-yl)-1,4-azaphosphinane 4-oxide] | 100% | 90% | 81% | 20% | 85%
